Results reported in patent US12227487B1, “Acyloxy substituted phenyl dithiane derivatives” (Renovel Innovations, Inc, priority 2021, dated 2025).

Tests used:
TNF-α = TNF-α level in Lipopolysaccharide (LPS) treated mice; format: in vivo; settings: compared to the control Lipopolysaccharide (LPS) group
IL-6 = IL-6 level in LPS treated mice; format: in vivo; settings: compared to the control LPS group
COX-1 enzyme = COX-1 enzyme (Homo sapiens, UniProt P23219); assay: COX-1 enzyme inhibition; format: biochemical; settings: FIG. 3A
COX-2 enzyme = target: T1, COX-2 enzyme (Homo sapiens, UniProt P35354); assay: COX-2 enzyme inhibition; format: biochemical; settings: FIG. 3A
T1 sequence (P35354 18-604): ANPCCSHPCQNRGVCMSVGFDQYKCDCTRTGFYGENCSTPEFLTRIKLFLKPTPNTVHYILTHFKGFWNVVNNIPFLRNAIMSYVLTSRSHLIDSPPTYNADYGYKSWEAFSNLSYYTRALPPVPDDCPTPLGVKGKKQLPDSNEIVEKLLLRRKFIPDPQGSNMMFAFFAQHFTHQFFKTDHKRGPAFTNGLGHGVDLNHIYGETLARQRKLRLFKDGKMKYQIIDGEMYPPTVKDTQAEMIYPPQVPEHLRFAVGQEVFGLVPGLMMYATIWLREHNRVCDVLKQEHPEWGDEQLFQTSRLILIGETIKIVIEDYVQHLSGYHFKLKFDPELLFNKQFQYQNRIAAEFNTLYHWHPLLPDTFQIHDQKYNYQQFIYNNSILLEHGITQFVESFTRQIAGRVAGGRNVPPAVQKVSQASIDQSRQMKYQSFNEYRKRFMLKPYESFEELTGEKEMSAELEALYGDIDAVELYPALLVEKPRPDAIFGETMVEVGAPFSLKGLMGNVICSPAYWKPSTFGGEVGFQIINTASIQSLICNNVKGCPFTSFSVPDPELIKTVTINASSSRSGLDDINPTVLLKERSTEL

mice = assay: Disease Activity Index in DSS mice, 21 day study; format: in vivo; settings: end of study period of 21 days, compared with the vehicle DSS group, P<0.04

COX-1 enzyme, sequence (P23219 24-599): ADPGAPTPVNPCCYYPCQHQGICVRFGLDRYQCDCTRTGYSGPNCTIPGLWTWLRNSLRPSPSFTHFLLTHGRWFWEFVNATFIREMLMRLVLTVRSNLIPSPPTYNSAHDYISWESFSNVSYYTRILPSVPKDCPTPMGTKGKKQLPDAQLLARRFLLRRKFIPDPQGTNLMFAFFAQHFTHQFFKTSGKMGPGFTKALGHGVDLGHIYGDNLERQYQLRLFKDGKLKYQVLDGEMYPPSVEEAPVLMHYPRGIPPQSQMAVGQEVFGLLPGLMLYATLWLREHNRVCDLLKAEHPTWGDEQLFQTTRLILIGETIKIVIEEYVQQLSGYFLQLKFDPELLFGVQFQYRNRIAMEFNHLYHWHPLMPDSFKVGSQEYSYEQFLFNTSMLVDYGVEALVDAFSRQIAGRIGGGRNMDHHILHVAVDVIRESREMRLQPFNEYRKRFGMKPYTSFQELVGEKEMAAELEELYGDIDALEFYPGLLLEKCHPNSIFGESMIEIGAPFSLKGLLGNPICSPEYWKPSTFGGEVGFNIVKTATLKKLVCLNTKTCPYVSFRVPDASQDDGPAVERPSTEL

reduction of COX-1 enzyme activity (COX-1 enzyme) [%]	reduction of COX-2 enzyme activity (COX-2 enzyme) [%]	Compound	decrease of TNF-α (TNF-α) [%]	decrease of IL-6 (IL-6) [%]	decrease in Disease Activity Index (mice) [%]
38	45	CC/C=C\CC(=O)Oc1ccc(Br)cc1C1SCCCS1 [compound 1, (Z)-4-bromo-2-(1,3-dithian-2-yl)phenyl hex-3-enoate]	53	19	23
		COc1cc(C2SCCCS2)ccc1OC(=O)/C=C/c1ccccc1 [compound 2, 4-(1,3-dithian-2-yl)-2-methoxyphenyl cinnamate]	26		
